Results: article PMC10698186 (Nature Communications, 2023)
“Also recorded” adds a separate entry of the source.

Key:
fresh serum = conditions: Male BALB/c mice, 37 °C, up to 20 hours (table); 21 h (methods)
mouse plasma = conditions: Male BALB/c mice, 37 °C, up to 144 h
[1] = test system: SK-BR-3, SK-OV-3, JIMT-1 and MCF7 cells; assay: Cell viability, all cells of Fig. 4d; type: cell-based; conditions: SK-BR-3, SK-OV-3, JIMT-1, MCF7; CellTiter Glo; n = 3 independent experiments
Description: (§1) Cells were seeded in a 96-well white opaque plate at a density of 5 × 10^3/well (CHO, ATCC, CCL-61) or 1 × 10^4/well (MCF7 (ATCC, HTB-22), SK-BR-3 (ATCC, HTB-30), SK-OV-3 (ATCC, HTB-77) or JIMT-1(Beyotime, C6453)). Cells were allowed to attach for 24 h at 37 °C and 5% CO2 in humidified atmosphere. Cells were then treated with serial dilutions of Tra-CAST, Tra-CAST-MMAE and SBA-MMAE or Tra-CASTi, Tra-CASTi-MMAE and DBCO-MMAE for 96 h (BT474, MCF7, SK-BR-3). Cell viability was determined using CellTiter Glo reagents (G7571) and was normalized to the control cells. Data was analyzed by Graphpad software, and the half-maximal effective concentration (EC50) value was calculated by fitting with the log(inhibitor) vs. response module.
10! […]
(§2) Our selected nanobody binds to human serum albumin (HSA)7, The functional impact of inserting CAST to nanobody was evaluated by measuring the affinity to human serum albumin using Biolayer Interferometry at room temperature. […]
Cells were seeded in a 96-well white opaque plate at a density of 5 × 10^3/well (CHO) or 1 × 10^4/well (MCF7, SK-BR-3, SK-OV-3 or JIMT-1). […] Cell viability was determined using CellTiter Glo reagents (G7571) and was normalized to the control cells. Data was analyzed by Graphpad software, and the half-maximal effective concentration (EC50) value was calculated by fitting with the log(inhibitor) vs. response module. […]

[2] = 20 mM glutathione, PBS (pH 7.4); conditions: 37 °C, up to 22 h
PBS = conditions: 95 °C, up to 1 hour
10 mM cysteine in PBS = conditions: 95 °C, up to 1 hour
CHO, MCF7, SK-BR-3 cells = assay: Cell viability, all cell lines of Supplementary Fig. 38; type: cell-based; conditions: 96 h, CellTiter Glo
Description: as §1
Deconvolutedmass (Da) Deconvolutedmass (Da)
Supplementary Figure 37. ESI ion series/deconvolution MS spectra: reactions between […]
trastuzumab-CAST and 1C and SBA-MMAE. a. […]
as §2
Cells were seeded in a 96-well white opaque plate at a density of 5 × 10^3/well (CHO) or 1 × 10^4/well (MCF7, SK-BR-3, SK-OV-3 or JIMT-1). […] Cell viability was determined using CellTiter Glo reagents (G7571) and was normalized to the control cells. Data was analyzed by […]

| Substance | cleaved bond (fresh serum) | further results |
| --- | --- | --- |
| Phenyl-PEG2-SPG-HAQDDHAA | P-G, 3 hours |  |
| Phenyl-PEG2-FFKKDDHAA |  | cleaved bond (mouse plasma): F-K, 18 h; also recorded: F-F, 48 h; fragment found (mouse plasma): Phenyl-PEG2-FFKK, 48 h |
| DBCO-PEG3-Glu-Val-Cit-PAB-MMAE [DBCO-MMAE] |  | toxicity towards all cells [1]: minimal toxicity |
| Phenyl-PEG2-SPG-MEQDDHAA | G-M, 3 hours; also recorded: P-G, 3 hours |  |
| Phenyl-PEG2-SPG-NEQDDHAA | P-G, 3 hours; also recorded: G-N, 20 hours |  |
| Phenyl-PEG2-SPG-IAQDDHAA | G-I, 3 hours |  |
| Phenyl-PEG2-SPG-FFKKDDHAA | P-G, 3 hours; also recorded: F-K, 3 hours; also recorded: G-F, 3 hours |  |
| Phenyl-PEG2-SPG-KAQDDHAA | P-G, 3 hours; also recorded: G-K, 3 hours |  |
| Phenyl-PEG2-SPG-IKAQDDHAA | I-K, 3 hours; also recorded: G-I, 3 hours; also recorded: A-Q, 3 hours; also recorded: P-G, 3 hours |  |
| Phenyl-PEG2-IAPDDHAA |  | not cleaved (mouse plasma): remained intact following incubation in plasma for 144 h |
| WCGIAPDDHAA [maleimide-WCGIAPDDHAA] |  | fragment found [2]: WCGIAPDDHAA, 22 h |
| Phenyl-PEG2-SPG-LKQDDHAA | G-L, 3 hours |  |
| Phenyl-PEG2-SPG-SHAQDDHAA | G-S, 3 hours; also recorded: P-G, 3 hours |  |
| DLAAEIAKHCG |  | fragment found (PBS): Maleimide hydrolysis byproduct, 1h; fragment found (10 mM cysteine in PBS): Maleimide hydrolysis byproduct, 1h; also recorded: SM:DLAAEIAKHCG, 1h |
| WCGIAPDDHAA [maleimide modified WCGIAPDDHAA] |  | fragment found [2]: released free peptide WCGIAPDDHAA, 22 h; also recorded: maleimide hydrolysis byproducts, 22 h |
| Phenyl-PEG2-SPG-SKAQDDHAA | G-S, 3 hours; also recorded: P-G, 3 hours |  |
| Phenyl-PEG2-SPG-NAQDDHAA | G-N, 3 hours; also recorded: P-G, 3 hours |  |
| Phenyl-PEG2-SPG-NAPDDHAA | G-N, 20 hours; also recorded: P-G, 20 hours |  |
| Phenyl-PEG2-SPG-NKKDDHAA | G-N, 3 hours |  |
| styrylboronic acid-Val-Cit-PAB-monomethyl auristatin E [SBA-MMAE] |  | toxicity in all cell lines at the tested concentrations (CHO, MCF7, SK-BR-3 cells): displayed toxicity and could not effectively distinguish HER2-negative MCF7 cells or HER2-positive SK-BR-3 cells |
| Phenyl-PEG2-SPG-INDPDDHAA | P-G, 3 hours; also recorded: G-I, 20 hours |  |
| Phenyl-PEG2-SPG-IAPDDHAA | G-I, 3 hours; also recorded: D-D, 20 hours; also recorded: P-G, 20 hours |  |
